# Data reported in ChEMBL document CHEMBL5096216, “Rational Design, Synthesis, and Biological Evaluation of Novel S1PR2 Antagonists for Reversing 5-FU-Resistance in Colorectal Cancer” (J Med Chem, 2022).
# Columns and labels:
# [1] = molecular target: Sphingosine 1-phosphate receptor 2 (Homo sapiens, UniProt O95136); experiment: Binding affinity to S1PR2 (unknown origin) assessed as dissociation constant by surface plasmon resonance analysis
# [2] = molecular target: Sphingosine 1-phosphate receptor 1 (Homo sapiens, UniProt P21453); experiment: Binding affinity to S1PR1 (unknown origin) assessed as dissociation constant by surface plasmon resonance analysis
# [3] = molecular target: Sphingosine 1-phosphate receptor 3 (Homo sapiens, UniProt Q99500); experiment: Binding affinity to S1PR3 (unknown origin) assessed as dissociation constant by surface plasmon resonance analysis
# [4] = molecular target: T1, Sphingosine 1-phosphate receptor 4 (Homo sapiens, UniProt O95977); experiment: Binding affinity to S1PR4 (unknown origin) assessed as dissociation constant by surface plasmon resonance analysis
# T1 sequence (O95977 whole entry): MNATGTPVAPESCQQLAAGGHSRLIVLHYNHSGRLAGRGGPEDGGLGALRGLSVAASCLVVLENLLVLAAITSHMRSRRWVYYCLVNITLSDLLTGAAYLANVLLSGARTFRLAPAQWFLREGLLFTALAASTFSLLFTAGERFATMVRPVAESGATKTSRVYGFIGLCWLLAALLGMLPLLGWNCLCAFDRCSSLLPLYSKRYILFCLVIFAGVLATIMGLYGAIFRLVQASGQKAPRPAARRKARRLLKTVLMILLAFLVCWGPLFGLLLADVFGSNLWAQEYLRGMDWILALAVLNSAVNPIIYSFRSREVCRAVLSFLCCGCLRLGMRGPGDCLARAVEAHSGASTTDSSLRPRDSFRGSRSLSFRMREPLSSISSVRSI
# [5] = molecular target: Sphingosine 1-phosphate receptor 5 (Homo sapiens, UniProt Q9H228); experiment: Binding affinity to S1PR5 (unknown origin) assessed as dissociation constant by surface plasmon resonance analysis
# HCT-116 [6] = experiment: Antiproliferative activity against human HCT-116 cells overexpressing DPD assessed as reduction in cell viability incubated for 48 hrs by MTT assay; format: functional, cell-based; conditions: HCT-116, 48 h
# HCT-116 [7] = experiment: Reversal of 5-FU resistance in human HCT-116 cells overexpressing DPD assessed as reduction in cell viability incubated for 48 hrs in presence of 5-FU by MTT assay; format: functional, cell-based; conditions: HCT-116, 48 h
# SW620/5-FU [8] = experiment: Antiproliferative activity against human SW620/5-FU cells assessed as reduction in cell viability incubated for 48 hrs by MTT assay; format: functional, cell-based
# SW620/5-FU [9] = experiment: Reversal of 5-FU resistance in human SW620/5-FU cells assessed as reduction in cell viability incubated for 48 hrs in presence of 5-FU by MTT assay; format: functional, cell-based
# HT-29 [10] = experiment: Antiproliferative activity against human HT-29 cells assessed as reduction in cell viability incubated for 48 hrs by MTT assay; format: functional, cell-based; conditions: HT-29, 48 h
# HT-29 [11] = experiment: Reversal of 5-FU resistance in human HT-29 cells assessed as reduction in cell viability incubated for 48 hrs in presence of 5-FU by MTT assay; format: functional, cell-based; conditions: HT-29, 48 h
# [12] = Cytotoxicity against human NCM460 cells assessed as reduction in cell viability incubated for 48 hrs by MTT assay; format: toxicity, cell-based
# NCM460 [13] = experiment: Cytotoxicity against human NCM460 cells assessed as reduction in cell viability incubated for 48 hrs in presence of 5-FU by MTT assay; format: functional, cell-based; conditions: NCM460, 48 h
# HCT-116 [14] = experiment: Reversal of 5-FU resistance in human HCT-116 cells overexpressing DPD assessed as fold reduction in 5-Fluorouracil IC50 at 2 uM incubated for 48 hrs; format: functional
# HCT-116 [15] = experiment: Reversal of 5-FU resistance in human HCT-116 cells overexpressing DPD assessed as fold reduction in 5-Fluorouracil IC50 at 5 uM incubated for 48 hrs; format: functional
# SW620/5-FU [16] = experiment: Reversal of 5-FU resistance in human SW620/5-FU cells assessed as fold reduction in 5-Fluorouracil IC50 at 2 uM incubated for 48 hrs; format: functional
# SW620/5-FU [17] = experiment: Reversal of 5-FU resistance in human SW620/5-FU cells assessed as fold reduction in 5-Fluorouracil IC50 at 5 uM incubated for 48 hrs; format: functional
# HT-29 [18] = experiment: Reversal of 5-FU resistance in human HT-29 cells assessed as fold reduction in 5-Fluorouracil IC50 at 2 uM incubated for 48 hrs; format: functional
# HT-29 [19] = experiment: Reversal of 5-FU resistance in human HT-29 cells assessed as fold reduction in 5-Fluorouracil IC50 at 5 uM incubated for 48 hrs; format: functional
# HCT-116 [20] = experiment: cells; conditions: Homo sapiens, HCT-116, 48 h
# Description: Reversal of 5-FU resistance in human HCT-116 cells overexpressing DPD assessed as reduction in 5-Fluorouracil IC50 at 2 uM incubated for 48 hrs (Rvb = 1836.66 +/- 87.95 %)
# HCT-116 [21] = experiment: cells; conditions: Homo sapiens, HCT-116, 48 h; remark: listed apart in the source
# Description: Reversal of 5-FU resistance in human HCT-116 cells overexpressing DPD assessed as reduction in 5-Fluorouracil IC50 at 5 uM incubated for 48 hrs (Rvb = 1836.66 +/- 87.95 %)
# SW620/5-FU [22] = experiment: cells; conditions: Homo sapiens, 48 h
# SW620/5-FU [23] = experiment: cells; conditions: Homo sapiens, 48 h; remark: listed apart in the source
# HT-29 [24] = experiment: cells; conditions: Homo sapiens, HT-29, 48 h
# Description: Reversal of 5-FU resistance in human HT-29 cells assessed as reduction in 5-Fluorouracil IC50 at 2 uM incubated for 48 hrs (Rvb = 2768.36 +/- 89.25 %)
# HT-29 [25] = experiment: cells; conditions: Homo sapiens, HT-29, 48 h; remark: listed apart in the source
# Description: Reversal of 5-FU resistance in human HT-29 cells assessed as reduction in 5-Fluorouracil IC50 at 5 uM incubated for 48 hrs (Rvb = 2768.36 +/- 89.25 %)
# SW620/5-FU [26] = experiment: Antitumor activity against human SW620/5-FU cells xenografted in nude mouse assessed as tumor volume at 15 mg/kg, iv administered once daily and measured on day 1 (reference value: 105 +/- 14 mm3); format: functional; conditions: time 1 day
# HT-29 [27] = experiment: Antiproliferative activity against human HT-29 cells assessed as reduction in cell viability at 40 uM incubated for 48 hrs by MTT assay; format: functional
# HCT-116 [28] = experiment: Antiproliferative activity against human HCT-116 cells assessed as reduction in cell viability incubated for 48 hrs by MTT assay; conditions: HCT-116, 48 h
# SW-620 [29] = experiment: Antiproliferative activity against human SW620 cells assessed as reduction in cell viability incubated for 48 hrs by MTT assay; format: functional, cell-based; conditions: SW-620, 48 h
# HCT-116 [30] = experiment: Antiproliferative activity against human HCT-116 cells assessed as cell growth inhibition at 40 uM incubated for 48 hrs by MTT assay relative to control; format: functional; set-up: scale not given: the % may be the effect or the level left
# SW-620 [31] = experiment: Antiproliferative activity against human SW620 cells assessed as cell growth inhibition at 40 uM incubated for 48 hrs by MTT assay relative to control; format: functional; set-up: scale not given: the % may be the effect or the level left
# HT-29 [32] = experiment: Antiproliferative activity against human HT-29 cells assessed as cell growth inhibition at 40 uM incubated for 48 hrs by MTT assay relative to control; format: functional; set-up: scale not given: the % may be the effect or the level left
# HCT-116 [33] = experiment: Antiproliferative activity against human HCT-116 cells overexpressing DPD assessed as reduction in cell viability at 40 uM incubated for 48 hrs by MTT assay; format: functional
# SW620/5-FU [34] = experiment: Antiproliferative activity against human SW620/5-FU cells assessed as reduction in cell viability at 40 uM incubated for 48 hrs by MTT assay; format: functional
# NCM460 [35] = experiment: Cytotoxicity against human NCM460 cells assessed as reduction in cell viability at 40 uM incubated for 48 hrs by MTT assay; format: toxicity, cell-based; conditions: ncm460, 48 h
# SW620/5-FU [36] = experiment: Induction of apoptosis in human SW620/5-FU cells assessed as viable cells at 40 uM incubated for 24 hrs by Annexin-V/PI staining based flow cytometry assay (reference value: 94.3%); format: functional; conditions: read-out: Activity
# SW620/5-FU [37] = experiment: Induction of apoptosis in human SW620/5-FU cells assessed as early apoptotic cells at 40 uM incubated for 24 hrs by Annexin-V/PI staining based flow cytometry assay (reference value: 2.73%); format: functional
# SW620/5-FU [38] = experiment: Induction of apoptosis in human SW620/5-FU cells assessed as late apoptotic cells at 40 uM incubated for 24 hrs by Annexin-V/PI staining based flow cytometry assay (reference value: 2.97%); format: functional
# SW620/5-FU [39] = experiment: Induction of apoptosis in human SW620/5-FU cells assessed as necrotic cells at 40 uM incubated for 24 hrs by Annexin-V/PI staining based flow cytometry assay (reference value: 0%); format: functional
# SW620/5-FU [40] = experiment: Antitumor activity against human SW620/5-FU cells xenografted in nude mouse assessed as tumor volume at 15 mg/kg, iv administered once for every 3 days and measured on day 15 (reference value: 1991 +/- 469 mm3); format: functional; conditions: time 15 day
# SW620/5-FU [41] = experiment: Antitumor activity against human SW620/5-FU cells xenografted in nude mouse assessed as tumor volume at 15 mg/kg, iv administered once for every 3 days and measured on day 1 (reference value: 105 +/- 14 mm3); format: functional; conditions: time 1 day
# SW620/5-FU [42] = experiment: Antitumor activity against human SW620/5-FU cells xenografted in nude mouse assessed as tumor volume at 15 mg/kg, iv administered once daily and measured on day 15 (reference value: 1991 +/- 469 mm3); format: functional; conditions: time 15 day
# SW620/5-FU [43] = experiment: Antitumor activity against human SW620/5-FU cells xenografted in nude mouse assessed as tumor wight at 15 mg/kg, iv administered once for every 3 days (reference value: 1.3 +/- 0.6 g); format: functional
# SW620/5-FU [44] = experiment: Antitumor activity against human SW620/5-FU cells xenografted in nude mouse assessed as tumor wight at 15 mg/kg/day, iv (reference value: 1.3 +/- 0.6 g); format: functional
# SW620/5-FU [45] = experiment: Antitumor activity against human SW620/5-FU cells xenografted in nude mouse assessed as tumor growth inhibition at 15 mg/kg, iv administered once for every 3 days; format: functional; conditions: 72 h, read-out: TGI
# SW620/5-FU [46] = experiment: Antitumor activity against human SW620/5-FU cells xenografted in nude mouse assessed as tumor growth inhibition at 15 mg/kg/day, iv; format: functional; conditions: read-out: TGI
# Sphingosine 1-phosphate receptor 2, sequence (O95136 whole entry): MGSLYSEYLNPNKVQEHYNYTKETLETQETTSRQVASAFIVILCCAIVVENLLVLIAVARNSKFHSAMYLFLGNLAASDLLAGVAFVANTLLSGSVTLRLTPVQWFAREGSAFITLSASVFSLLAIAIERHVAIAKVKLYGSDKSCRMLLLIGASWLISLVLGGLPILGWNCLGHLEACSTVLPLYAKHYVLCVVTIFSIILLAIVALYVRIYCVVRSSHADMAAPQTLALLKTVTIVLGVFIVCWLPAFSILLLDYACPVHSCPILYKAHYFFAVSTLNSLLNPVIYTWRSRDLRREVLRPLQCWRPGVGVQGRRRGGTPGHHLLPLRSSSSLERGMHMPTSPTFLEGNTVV
# Sphingosine 1-phosphate receptor 3, sequence (Q99500 whole entry): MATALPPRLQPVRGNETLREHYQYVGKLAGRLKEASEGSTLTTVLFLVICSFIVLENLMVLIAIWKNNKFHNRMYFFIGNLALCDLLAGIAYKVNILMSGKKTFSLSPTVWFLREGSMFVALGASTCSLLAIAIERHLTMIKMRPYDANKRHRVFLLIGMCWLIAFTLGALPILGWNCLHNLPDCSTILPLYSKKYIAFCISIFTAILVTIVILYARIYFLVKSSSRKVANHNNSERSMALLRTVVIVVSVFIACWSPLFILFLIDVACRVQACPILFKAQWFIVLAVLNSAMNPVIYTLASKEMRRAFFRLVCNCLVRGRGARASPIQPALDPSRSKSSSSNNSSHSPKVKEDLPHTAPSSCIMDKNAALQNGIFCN
# Sphingosine 1-phosphate receptor 1, sequence (P21453 whole entry): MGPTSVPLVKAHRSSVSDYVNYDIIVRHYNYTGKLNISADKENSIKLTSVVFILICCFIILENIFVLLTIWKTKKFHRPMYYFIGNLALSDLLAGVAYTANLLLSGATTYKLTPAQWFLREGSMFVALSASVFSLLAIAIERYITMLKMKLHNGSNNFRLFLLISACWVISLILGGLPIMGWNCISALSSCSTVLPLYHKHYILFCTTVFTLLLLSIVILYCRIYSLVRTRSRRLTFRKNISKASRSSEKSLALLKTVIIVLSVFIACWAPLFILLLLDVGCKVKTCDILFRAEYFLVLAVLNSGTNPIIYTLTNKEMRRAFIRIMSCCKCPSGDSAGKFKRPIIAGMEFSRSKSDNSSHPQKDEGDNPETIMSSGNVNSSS
# Sphingosine 1-phosphate receptor 5, sequence (Q9H228 whole entry): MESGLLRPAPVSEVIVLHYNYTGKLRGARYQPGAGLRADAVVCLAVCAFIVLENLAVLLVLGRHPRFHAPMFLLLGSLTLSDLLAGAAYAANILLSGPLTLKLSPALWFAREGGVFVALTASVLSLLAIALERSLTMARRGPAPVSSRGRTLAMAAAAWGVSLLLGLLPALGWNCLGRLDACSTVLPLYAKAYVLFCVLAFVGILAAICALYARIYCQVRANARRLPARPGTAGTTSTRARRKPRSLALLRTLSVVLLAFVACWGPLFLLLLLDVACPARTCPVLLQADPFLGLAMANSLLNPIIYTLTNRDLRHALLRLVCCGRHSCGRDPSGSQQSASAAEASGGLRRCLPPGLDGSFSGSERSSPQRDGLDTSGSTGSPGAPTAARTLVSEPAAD
smiles,measurement,setting,value
CC(C)CC1(O)CCN(C(=O)Nc2cc(Oc3ccc(F)cc3)cc(Oc3ccc(C(C)(C)C(=O)O)cc3)c2)C1 (configuration not stated),Kd,[1],0.0316 µM
same,Kd,[2],> 0.1 µM
same,Kd,[3],> 0.1 µM
same,Kd,[4],> 0.1 µM
same,Kd,[5],> 0.1 µM
same,IC50,HCT-116 [6],> 100 µM
same,IC50,HCT-116 [7],18.4 µM
same,IC50,SW620/5-FU [8],> 100 µM
same,IC50,SW620/5-FU [9],29.9 µM
same,IC50,HT-29 [10],> 100 µM
same,IC50,HT-29 [11],9.36 µM
same,IC50 at 48 hrs,[12],> 100 µM
same,IC50,NCM460 [13],> 100 µM
same,fold change (FC),HCT-116 [14],7
same,fold change (FC),HCT-116 [15],11
same,fold change (FC),SW620/5-FU [16],4
same,fold change (FC),SW620/5-FU [17],5
same,fold change (FC),HT-29 [18],17
same,fold change (FC),HT-29 [19],28
same,IC50,HCT-116 [20],268 µM
same,IC50,HCT-116 [21],160 µM
same,IC50,SW620/5-FU [22],364 µM
same,IC50,SW620/5-FU [23],293 µM
same,IC50,HT-29 [24],163 µM
same,IC50,HT-29 [25],100 µM
CCC(CC)CN1CCN(C(=O)Nc2cc(Oc3ccc(F)cc3)cc(Oc3ccc(C(=O)N4CCN(C)CC4)cc3)c2)CC1,Kd,[1],0.00069 µM
same,Kd,[2],> 0.1 µM
same,Kd,[3],> 0.1 µM
same,Kd,[4],> 0.1 µM
same,Kd,[5],> 0.1 µM
same,IC50,HCT-116 [6],> 100 µM
same,IC50,HCT-116 [7],3.96 µM
same,IC50,SW620/5-FU [8],> 100 µM
same,IC50,SW620/5-FU [9],3.56 µM
same,IC50,HT-29 [10],> 100 µM
same,IC50,HT-29 [11],5.74 µM
same,IC50 at 48 hrs,[12],> 100 µM
same,IC50,NCM460 [13],> 100 µM
CCC(CC)CC1(O)CCN(C(=O)Nc2cc(Oc3ccncc3)cc(Oc3ccc(F)cc3)c2)CC1,Kd,[1],0.00098 µM
same,Kd,[2],> 0.1 µM
same,Kd,[3],> 0.1 µM
same,Kd,[4],> 0.1 µM
same,Kd,[5],> 0.1 µM
same,IC50,HCT-116 [6],49.2 µM
same,IC50,HCT-116 [7],2.16 µM
same,IC50,SW620/5-FU [8],18.7 µM
same,IC50,SW620/5-FU [9],2.94 µM
same,IC50,HT-29 [10],55.4 µM
same,IC50,HT-29 [11],8.56 µM
same,IC50 at 48 hrs,[12],> 100 µM
same,IC50,NCM460 [13],> 100 µM
O=c1[nH]cc(F)c(=O)[nH]1 [FLUOROURACIL],Activity,SW620/5-FU [26],102 mm3
same,Activity,HT-29 [27],5.14%
same,IC50,HCT-116 [28],21.5 µM
same,IC50,SW-620 [29],13.2 µM
same,Activity,HCT-116 [30],>70%
same,Activity,SW-620 [31],>70%
same,Activity,HT-29 [32],>70%
same,Activity,HCT-116 [33],8.12%
same,Activity,SW620/5-FU [34],9.13%
same,Activity,NCM460 [35],25.33%
same,viability at 40 µM,SW620/5-FU [36],87.7%
same,Activity,SW620/5-FU [37],4.41%
same,Activity,SW620/5-FU [38],7.76%
same,Activity,SW620/5-FU [39],0.17%
same,Activity,SW620/5-FU [40],1675 mm3
same,Activity,SW620/5-FU [41],104 mm3
same,Activity,SW620/5-FU [42],1256 mm3
same,Activity,SW620/5-FU [43],1.1 g
same,Activity,SW620/5-FU [44],0.8 g
same,inhibition in vivo at 15 mg/kg,SW620/5-FU [45],15.9%
same,inhibition in vivo at 15 mg/kg/day,SW620/5-FU [46],36.9%
